Data: patent US20170088545A1, “CARBOXAMIDE INHIBITORS” (Norvartis AG, priority 2014, published 2017)

Assays:
Smurf-2 = Smurf-2 (Homo sapiens, UniProt Q9HAU4); test: HECT E3 ligase autoubiquitinylation TR-FRET assay, Smurf-2; format: biochemical; conditions: 45 min incubation, 8-point dose-response
Source text: (§1) To determine the HECT E3 ligase selectivity of the compounds, a panel of biochemical HECT E3 ligase autoubiquitinylation assays was employed (Smurf-1, Smurf-2, WWP1, WWP2, ITCH, Nedd4, Nedd4L and E6AP). The conjugation of ubiquitin to a protein substrate is a multistep process. In an initial ATP-requiring step, a thioester bond is formed between the carboxyl terminus of ubiquitin and an internal cystein residue of the ubiquitin-activating enzyme (E1). Activated ubiquitin is then transferred to a specific cystein residue of an ubiquitin-conjugating enzyme (E2). E2s donate ubiquitin to a HECT E3 ligase (E3) from which it is transferred to the substrate protein. HECT E3 ligases can auto-ubiquitinylate. This event is detected in the TR-FRET (Time-Resolved Fluorescence Resonance Energy Transfer) assay used in this panel. The reaction mix contains E1, E2, tagged-E3, biotin-conjugated ubiquitin, the compound and ATP in a suitable buffer and is incubated for 45 minutes to allow auto-ubiquitinylation of the E3 ligase. To measure the extent of ubiquitinylated E3 ligase by TR-FRET, the donor fluorophore Europium cryptate (Eu3+ cryptate), conjugated to streptavidin which subsequently binds to biotinylated ubiquitin, and the modified allophycocyanin XL665 (HTRF® primary acceptor fluorophore) coupled to a tag-specific antibody (HA, His or GST), which recognizes the respective E3 ligase fusion proteins, are added after the reaction is complete. When these two fluorophores are brought together by a biomolecular interaction (in this case ubiquitinylation of the E3 ligase), a portion of the energy captured by the Cryptate during excitation is released through fluorescence emission at 620 nm, while the remaining energy is transferred to XL665. This energy is then released by XL665 as specific fluorescence at 665 nm. Light at 665 nm is emitted only through FRET with Europium.
(§2) Test and reference compounds are prepared at 180× [final] in 90% DMSO, and diluted 1:3 in 90% DMSO.
(§3) For the biochemical assay panel, 50 nl of the test compounds, reference compounds and buffer/DMSO control are transferred to the respective wells of a 384-well white GREINER “SMALL VOLUME” PS plate. The assay panel is run at room temperature on a Biomek FX liquid handling workstation. To the assay plates containing 50 nl compound or control solutions in 90% DMSO, 4.5 ul of E3 ligase solution were added per well, followed by 4.5 ul of the pre-incubated E1/E2/Ub mix or the pre-diluted ubiquitin (LOW control). Plates are shaken vigorously after each addition. In this assay the compound concentrations range from 3 nM to 10 uM in an 8-point dose-response curve.
(§4) After 45 min of incubation the ubiquitinylation reactions were stopped by adding 4.5 ul 2 mM NEM, immediately followed by 4.5 ul of a detection solution including the XL665-labeled antibody and the streptavidin-coupled europium to give a total volume of 18 ul. After an incubation time of 45 min in the dark, the plates are transferred into the Pherastar fluorescence reader to measure the TR-FRET signal.

Smurf-1 = Smurf-1 (Homo sapiens, UniProt Q9HCE7); test: HECT E3 ligase autoubiquitinylation TR-FRET assay, Smurf-1; format: biochemical; conditions: 45 min incubation, 8-point dose-response
Source text: as §1, §2, §3, §4

Chain of Smurf-1 (Q9HCE7 whole entry): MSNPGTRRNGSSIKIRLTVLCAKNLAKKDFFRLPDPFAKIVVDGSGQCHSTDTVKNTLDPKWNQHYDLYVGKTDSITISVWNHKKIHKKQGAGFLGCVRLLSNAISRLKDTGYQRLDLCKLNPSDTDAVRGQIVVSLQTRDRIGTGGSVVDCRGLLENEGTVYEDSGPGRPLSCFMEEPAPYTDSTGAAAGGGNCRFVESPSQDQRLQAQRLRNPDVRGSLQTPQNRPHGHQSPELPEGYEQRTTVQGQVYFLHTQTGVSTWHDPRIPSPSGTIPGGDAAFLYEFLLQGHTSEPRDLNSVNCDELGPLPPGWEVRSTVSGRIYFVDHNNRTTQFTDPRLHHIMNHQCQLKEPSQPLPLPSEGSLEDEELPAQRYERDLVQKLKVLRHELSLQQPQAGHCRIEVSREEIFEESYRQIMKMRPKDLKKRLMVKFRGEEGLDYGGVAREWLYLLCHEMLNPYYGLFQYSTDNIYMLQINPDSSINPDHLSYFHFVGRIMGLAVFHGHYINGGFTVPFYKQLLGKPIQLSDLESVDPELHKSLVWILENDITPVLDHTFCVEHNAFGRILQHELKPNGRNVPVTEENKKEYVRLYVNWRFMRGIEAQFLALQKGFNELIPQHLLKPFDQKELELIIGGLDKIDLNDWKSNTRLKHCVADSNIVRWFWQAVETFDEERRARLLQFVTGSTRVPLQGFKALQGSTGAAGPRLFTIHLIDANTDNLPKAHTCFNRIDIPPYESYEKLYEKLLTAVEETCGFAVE
Chain of Smurf-2 (Q9HAU4 whole entry, species assumed): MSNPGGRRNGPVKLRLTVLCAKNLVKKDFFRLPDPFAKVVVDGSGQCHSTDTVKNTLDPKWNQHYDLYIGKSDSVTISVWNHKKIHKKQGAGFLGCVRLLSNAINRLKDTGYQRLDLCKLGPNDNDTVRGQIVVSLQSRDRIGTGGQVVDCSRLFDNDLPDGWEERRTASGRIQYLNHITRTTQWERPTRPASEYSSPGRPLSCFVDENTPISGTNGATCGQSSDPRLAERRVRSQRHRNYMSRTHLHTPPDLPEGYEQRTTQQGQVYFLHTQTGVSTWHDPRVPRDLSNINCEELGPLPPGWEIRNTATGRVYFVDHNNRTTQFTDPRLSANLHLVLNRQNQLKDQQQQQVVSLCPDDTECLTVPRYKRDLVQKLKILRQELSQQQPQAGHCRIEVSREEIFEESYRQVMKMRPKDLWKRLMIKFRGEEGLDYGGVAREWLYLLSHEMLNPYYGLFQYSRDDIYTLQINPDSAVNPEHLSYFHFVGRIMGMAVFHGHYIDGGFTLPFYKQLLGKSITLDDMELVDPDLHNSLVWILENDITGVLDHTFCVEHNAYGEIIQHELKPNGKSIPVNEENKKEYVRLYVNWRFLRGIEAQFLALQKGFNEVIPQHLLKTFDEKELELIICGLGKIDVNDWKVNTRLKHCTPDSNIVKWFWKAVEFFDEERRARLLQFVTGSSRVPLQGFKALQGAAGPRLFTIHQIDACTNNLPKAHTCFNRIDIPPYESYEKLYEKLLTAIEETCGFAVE

Row | SMILES | IC50 (Smurf-2) | IC50 (Smurf-1)
1 | Cc1c(NC(=O)c2noc(-c3ccc(Cl)cc3Cl)c2C2CC2)c(=O)n(C2CCCCC2)n1C [Example 039, N-(2-Cyclohexyl-1,5-dimethyl-3-oxo-2,3-dihydro-1H-pyrazol-4-yl)-4-cyclopropyl-5-(2,4-dichlorophenyl) isoxazole-3-carboxamide] | 7.5 µM | 0.0083 µM
2 | Cc1c(C(=O)Nc2c(C)n(C)n(-c3ccccc3F)c2=O)noc1-c1ccc(Cl)cc1Cl [Example 001, 5-(2,4-Dichlorophenyl)-N-(2-(2-fluorophenyl)-1,5-dimethyl-3-oxo-2,3-dihydro-1H-pyrazol-4-yl)-4-methylisoxazole-3-carboxamide] | > 10 µM | 0.0295 µM
3 | Cc1c(C(=O)Nc2c(C)n(C)n(C3CCCCC3)c2=O)noc1-c1ccc(OC(F)(F)F)cc1Cl [Example 010, 5-(2-Chloro-4-(trifluoromethoxy)phenyl)-N-(2-cyclohexyl-1,5-dimethyl-3-oxo-2,3-dihydro-1H-pyrazol-4-yl)-4-methylisoxazole-3-carboxamide] | 2.74 µM | 0.0227 µM
4 | COc1ccc(-c2onc(C(=O)Nc3c(C)n(C)n(-c4ccccc4F)c3=O)c2C)c(C(F)(F)F)c1 [Example 013, N-(2-(2-Fluorophenyl)-1,5-dimethyl-3-oxo-2,3-dihydro-1H-pyrazol-4-yl)-5-(4-methoxy-2-(trifluoromethyl)phenyl)-4-methylisoxazole-3-carboxamide] | > 20 µM | 0.102 µM
5 | Cc1c(NC(=O)c2noc(-c3ccc(OC(F)F)cc3Cl)c2Cl)c(=O)n(-c2ccccc2F)n1C [Example 003, 4-Chloro-5-(2-chloro-4-(difluoromethoxy)phenyl)-N-(2-(2-fluorophenyl)-1,5-dimethyl-3-oxo-2,3-dihydro-1H-pyrazol-4-yl)isoxazole-3-carboxamide] | 16.8 µM | 0.0543 µM
6 | Cc1c(NC(=O)c2noc(-c3ccc(Cl)cc3Cl)c2Cl)c(=O)n(C2CCCCC2)n1C [Example 023, 4-Chloro-N-(2-cyclohexyl-1,5-dimethyl-3-oxo-2,3-dihydro-1H-pyrazol-4-yl)-5-(2,4-dichlorophenyl) isoxazole-3-carboxamide] | 4.25 µM | 0.0024 µM
7 | COc1ccc(-c2onc(C(=O)Nc3c(C)n(C)n(C4CCCCC4)c3=O)c2Br)c(Cl)c1 [Example 034, 4-Bromo-5-(2-chloro-4-methoxyphenyl)-N-(2-cyclohexyl-1,5-dimethyl-3-oxo-2,3-dihydro-1H-pyrazol-4-yl)isoxazole-3-carboxamide] | 5.23 µM | 0.0037 µM
8 | COc1ccc(-c2onc(C(=O)Nc3c(C)n(C)n(-c4ccccc4F)c3=O)c2C)c(Cl)c1 [Example 006, 5-(2-Chloro-4-methoxyphenyl)-N-(2-(2-fluorophenyl)-1,5-dimethyl-3-oxo-2,3-dihydro-1H-pyrazol-4-yl)-4-methylisoxazole-3-carboxamide] | 10.8 µM | 0.0235 µM

The next lines start with the values.

Row | IC50 (Smurf-2) | IC50 (Smurf-1) | SMILES
9 | > 20.2 µM | 0.0415 µM | COCc1ccc(-c2onc(C(=O)Nc3c(C)n(C)n(C4CCCCC4)c3=O)c2C)c(Cl)c1 [Example 47, 5-(2-Chloro-4-(methoxymethyl)phenyl)-N-(2-cyclohexyl-1,5-dimethyl-3-oxo-2,3-dihydro-1H-pyrazol-4-yl)-4-methylisoxazole-3-carboxamide]
10 | 7.5 µM | 0.024 µM | Cc1c(C(=O)Nc2c(C)n(C)n(C3CCCCC3)c2=O)noc1-c1ccc(Cl)cc1F [Example 057, 5-(4-Chloro-2-fluorophenyl)-N-(2-cyclohexyl-1,5-dimethyl-3-oxo-2,3-dihydro-1H-pyrazol-4-yl)-4-methylisoxazole-3-carboxamide]
11 | > 20.2 µM | 0.895 µM | Cc1c(C(=O)Nc2c(C)n(C)n(C3CCCCC3)c2=O)noc1-c1cccc2c1OCCC2 [Example 075, 5-(Chroman-8-yl)-N-(2-cyclohexyl-1,5-dimethyl-3-oxo-2,3-dihydro-1H-pyrazol-4-yl)-4-methyl isoxazole-3-carboxamide]
12 | > 20.2 µM | 0.0505 µM | COc1ccc(-c2onc(C(=O)Nc3c(C)n(C)n(C4CCCCC4)c3=O)c2C2CC2)c(C(F)(F)F)c1 [Example 085, N-(2-Cyclohexyl-1,5-dimethyl-3-oxo-2,3-dihydro-1H-pyrazol-4-yl)-4-cyclopropyl-5-(4-methoxy-2-(trifluoromethyl)phenyl)isoxazole-3-carboxamide]
13 | > 20.2 µM | 7.15 µM | COc1ccccc1-c1onc(C(=O)Nc2c(C)n(C)n(-c3ccccc3F)c2=O)c1C [Example 084, N-(2-(2-fluorophenyl)-1,5-dimethyl-3-oxo-2,3-dihydro-1H-pyrazol-4-yl)-5-(2-methoxyphenyl)-4-methylisoxazole-3-carboxamide]
